# In US9695155B2, “Herbicidal substituted pyrimidinyloxy benzene compounds” (E. I. DU PONT DE NEMOURS AND COMPANY, priority 2013, dated 2017):
# Key:
# [1] = test system: giant foxtail; experiment: Test C postemergence; format: in vivo, Setaria faberii
# Method in brief: (§1)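 Greenhouse herbicide screen. Pre: seeded loam/sand, sprayed at planting. Post: 1–4 leaf plants (2–18 cm) in peat-based mix. Formulation: solvent mixture + surfactant, non-phytotoxic. Readout: visual % control vs untreated, 13–15 d; dash = not tested.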
# [2] = test system: ragweed; experiment: Test C postemergence; format: in vivo, Ambrosia elatior; conditions: for Ragweed plant response rating: 31 g ai/ha
# Method in brief: as §1
# [3] = test system: pigweed; experiment: Test A postemergence; format: in vivo, Amaranthus retroflexus
# Method in brief: (§2)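 Scoring: eye-based comparison with untreated controls, 0 for no effect through 100 for complete control, at about day 10. Treatments: directed soil spray preemergence; foliar spray postemergence on 2–10 cm plants at the one- to two-leaf stage. Medium: loam soil with sand.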
# [4] = test system: chickweed; experiment: Test C postemergence; format: in vivo, Stellaria media
# Method in brief: as §1
# [5] = test system: soybean; experiment: Test C postemergence; format: in vivo, Glycine max; conditions: for Soybean plant response rating: 31 g ai/ha
# Method in brief: as §1
# [6] = test system: pigweed; experiment: Test A preemergence; format: in vivo, Amaranthus retroflexus
# Method in brief: as §2
# [7] = test system: wild oat; experiment: Test C postemergence; format: in vivo, Avena fatua; conditions: for Oat, Wild plant response rating: 31 g ai/ha
# Method in brief: as §1
# [8] = test system: giant foxtail; experiment: Test A postemergence; format: in vivo, Setaria faberii
# Method in brief: as §2
# [9] = test system: wheat, winter; experiment: Test C postemergence; format: in vivo, Triticum aestivum; conditions: for Wheat plant response rating: 31 g ai/ha
# Method in brief: as §1
# [10] = test system: giant foxtail; experiment: Test A preemergence; format: in vivo, Setaria faberii
# Method in brief: as §2
# [11] = test system: velvetleaf; experiment: Test C postemergence; format: in vivo, Abutilon theophrasti; conditions: for Velvetleaf plant response rating: 31 g ai/ha
# Method in brief: as §1
# [12] = 8 g ai/ha, postemergence, 0 is no effect, 100 is complete control
# [13] = 16 g ai/ha, postemergence, 0 is no effect, 100 is complete control
# [14] = 31 g ai/ha, postemergence, visual rating, scale 0 to 100 (0 no effect, 100 complete control), 13 to 15 days
# [15] = postemergence, visual rating, scale 0 to 100 (0 no effect, 100 complete control), 13 to 15 days
# [16] = 31 g ai/ha, 0 to 100 scale, 0 no effect, 100 complete control
# [17] = 125 g ai/ha, 0 to 100 scale where 0 is no effect and 100 is complete control
# [18] = 31 g ai/ha, 0 to 100 scale where 0 is no effect and 100 is complete control, visual, approximately 10 days
# [19] = 125 g ai/ha, postemergence, visual rating, scale 0 to 100 (0 no effect, 100 complete control)
# [20] = Postemergence, 62 g ai/ha, scale 0 to 100 (0 no effect, 100 complete control), 13 to 15 days
# [21] = 125 g ai/ha, 0 to 100 scale, 0 no effect, 100 complete control
# [22] = 500 g ai/ha, 0 to 100 scale where 0 is no effect and 100 is complete control
smiles,measurement,setting,value
FCc1cccc(Oc2ncc(F)cn2)c1-n1cc(I)cn1 [Compound 152],"Plant response rating (0 to 100), Foxtail, Giant",[1]; [12],0
same,"Plant response rating (0 to 100), Foxtail, Giant",[1]; [13],5
same,"Foxtail, Giant plant response rating",[1]; [14],5
same,"Plant response rating (0 to 100), Ragweed",[2]; [12],15
same,"Plant response rating (0 to 100), Ragweed",[2]; [13],10
same,Ragweed plant response rating,[2]; [15],40
same,"Plant response rating, Pigweed",[3]; [16],0
same,Pigweed plant response rating,[3]; [17],90
same,"Plant response rating (0 to 100), Chickweed","[4]; 4 g ai/ha, postemergence, 0 is no effect, 100 is complete control",5
same,"Plant response rating (0 to 100), Chickweed",[4]; [12],5
same,"Plant response rating (0 to 100), Chickweed",[4]; [13],10
same,Chickweed plant response rating,[4]; [14],30
same,"Plant response rating (0 to 100), Soybean",[5]; [12],30
same,"Plant response rating (0 to 100), Soybean",[5]; [13],35
same,Soybean plant response rating,[5]; [15],60
same,"Plant response rating, Pigweed",[6]; [18],90
same,"Plant response rating, Pigweed",[6]; [17],90
same,"Plant response rating (0 to 100), Oat, Wild",[7]; [12],0
same,"Plant response rating (0 to 100), Oat, Wild",[7]; [13],0
same,"Oat, Wild plant response rating",[7]; [15],5
same,"Plant response rating, Foxtail, Giant",[8]; [16],0
same,"Foxtail, Giant plant response rating",[8]; [17],40
same,"Plant response rating (0 to 100), Wheat",[9]; [12],0
same,"Plant response rating (0 to 100), Wheat",[9]; [13],0
same,Wheat plant response rating,[9]; [15],0
same,"Plant response rating, Foxtail, Giant",[10]; [18],10
same,"Plant response rating, Foxtail, Giant",[10]; [17],100
same,"Plant response rating (0 to 100), Velvetleaf",[11]; [12],5
same,"Plant response rating (0 to 100), Velvetleaf",[11]; [13],20
same,Velvetleaf plant response rating,[11]; [15],45
"Clc1cnc(Oc2ccccc2-n2cc(C3CC3)nn2)nc1 [Compound 160, 5-chloro-2-[2-(4-cyclopropyl-1H-1,2,3-triazol-1-yl)phenoxy]pyrimidine]",pest or weed control at 16 g/ha,"[1]; Setaria faberi, post-emergence, 16 g ai/ha, postemergence, 0 is no effect, 100 is complete control, read-out: Plant response rating (0 to 100), Foxtail, Giant",0%
same,pest or weed control at 31 g/ha,"[1]; Setaria faberi, post-emergence, 31 g ai/ha, postemergence, visual rating, scale 0 to 100 (0 no effect, 100 complete control), 13 to 15 days, read-out: Foxtail, Giant plant response rating",5%
same,pest or weed control at 125 g/ha,"[1]; Setaria faberi, post-emergence, 125 g ai/ha, postemergence, visual rating, scale 0 to 100 (0 no effect, 100 complete control), read-out: Plant response rating, Foxtail, Giant",10%
same,pest or weed control at 62 g/ha,"[1]; Setaria faberi, post-emergence, Postemergence, 62 g ai/ha, scale 0 to 100 (0 no effect, 100 complete control), read-out: Plant response rating, Foxtail, Giant",5%
same,Ragweed plant response rating,[2]; [15],45
same,pest or weed control at 16 g/ha,"[2]; Ambrosia artemisiifolia, post-emergence, 16 g ai/ha, postemergence, 0 is no effect, 100 is complete control, read-out: Plant response rating (0 to 100), Ragweed",10%
same,pest or weed control at 125 g/ha,"[2]; Ambrosia artemisiifolia, post-emergence, 125 g ai/ha, postemergence, visual rating, scale 0 to 100 (0 no effect, 100 complete control), read-out: Plant response rating, Ragweed",70%
same,pest or weed control at 62 g/ha,"[2]; Ambrosia artemisiifolia, post-emergence, Postemergence, 62 g ai/ha, scale 0 to 100 (0 no effect, 100 complete control), read-out: Plant response rating, Ragweed",60%
same,pest or weed control at 1000 g/ha,"[3]; Amaranthus retroflexus, post-emergence, 240 h, 1000 g ai/ha, 0 to 100 scale, 0 no effect, 100 complete control, read-out: Plant response rating Pigweed",100%
same,pest or weed control at 16 g/ha,"[4]; Stellaria media, post-emergence, 16 g ai/ha, postemergence, 0 is no effect, 100 is complete control, read-out: Plant response rating (0 to 100), Chickweed",50%
same,pest or weed control at 31 g/ha,"[4]; Stellaria media, post-emergence, 31 g ai/ha, postemergence, visual rating, scale 0 to 100 (0 no effect, 100 complete control), 13 to 15 days, read-out: Chickweed plant response rating",55%
same,pest or weed control at 125 g/ha,"[4]; Stellaria media, post-emergence, 125 g ai/ha, postemergence, visual rating, scale 0 to 100 (0 no effect, 100 complete control), read-out: Plant response rating, Chickweed",70%
same,pest or weed control at 62 g/ha,"[4]; Stellaria media, post-emergence, Postemergence, 62 g ai/ha, scale 0 to 100 (0 no effect, 100 complete control), read-out: Plant response rating, Chickweed",80%
same,Soybean plant response rating,[5]; [15],55
same,"Soybean plant response rating (crop injury, 0-100 scale) at 16 g/ha","[5]; Glycine max, post-emergence, 16 g ai/ha, postemergence, 0 is no effect, 100 is complete control",40%
same,"Soybean plant response rating (crop injury, 0-100 scale) at 125 g/ha","[5]; Glycine max, post-emergence, 125 g ai/ha, postemergence, visual rating, scale 0 to 100 (0 no effect, 100 complete control), read-out: Plant response rating, Soybean",60%
same,"Soybean plant response rating (crop injury, 0-100 scale) at 62 g/ha","[5]; Glycine max, post-emergence, Postemergence, 62 g ai/ha, scale 0 to 100 (0 no effect, 100 complete control)",60%
same,pest or weed control at 1000 g/ha,"[6]; Amaranthus retroflexus, pre-emergence, 240 h, 1000 g ai/ha, 0 to 100 scale, 0 no effect, 100 complete control, approx. 10 days, read-out: Pigweed plant response rating",100%
same,"Oat, Wild plant response rating",[7]; [15],0
same,pest or weed control at 16 g/ha,"[7]; Avena fatua, post-emergence, 16 g ai/ha, postemergence, 0 is no effect, 100 is complete control, read-out: Plant response rating (0 to 100), Oat, Wild",0%
same,pest or weed control at 125 g/ha,"[7]; Avena fatua, post-emergence, 125 g ai/ha, postemergence, visual rating, scale 0 to 100 (0 no effect, 100 complete control), read-out: Plant response rating, Oat, Wild",0%
same,pest or weed control at 62 g/ha,"[7]; Avena fatua, post-emergence, Postemergence, 62 g ai/ha, scale 0 to 100 (0 no effect, 100 complete control), read-out: Plant response rating, Oat, Wild",0%
same,pest or weed control at 1000 g/ha,"[8]; Setaria faberi, post-emergence, 240 h, 1000 g ai/ha, 0 to 100 scale, 0 no effect, 100 complete control, read-out: Plant response rating Foxtail, Giant",100%
same,Wheat plant response rating,[9]; [15],5
same,plant injury at 16 g/ha,"[9]; Triticum aestivum, post-emergence, 16 g ai/ha, postemergence, 0 is no effect, 100 is complete control, read-out: Plant response rating (0 to 100), Wheat",0%
same,plant injury at 125 g/ha,"[9]; Triticum aestivum, post-emergence, 125 g ai/ha, postemergence, visual rating, scale 0 to 100 (0 no effect, 100 complete control), read-out: Plant response rating, Wheat",5%
same,plant injury at 62 g/ha,"[9]; Triticum aestivum, post-emergence, Postemergence, 62 g ai/ha, scale 0 to 100 (0 no effect, 100 complete control), read-out: Plant response rating, Wheat",5%
same,pest or weed control at 1000 g/ha,"[10]; Setaria faberi, pre-emergence, 240 h, 1000 g ai/ha, 0 to 100 scale, 0 no effect, 100 complete control, approx. 10 days, read-out: Foxtail, Giant plant response rating",100%
same,Velvetleaf plant response rating,[11]; [15],65
same,pest or weed control at 16 g/ha,"[11]; Abutilon theophrasti, post-emergence, 16 g ai/ha, postemergence, 0 is no effect, 100 is complete control, read-out: Plant response rating (0 to 100), Velvetleaf",45%
same,pest or weed control at 125 g/ha,"[11]; Abutilon theophrasti, post-emergence, 125 g ai/ha, postemergence, visual rating, scale 0 to 100 (0 no effect, 100 complete control), read-out: Plant response rating, Velvetleaf",90%
same,pest or weed control at 62 g/ha,"[11]; Abutilon theophrasti, post-emergence, Postemergence, 62 g ai/ha, scale 0 to 100 (0 no effect, 100 complete control), read-out: Plant response rating, Velvetleaf",80%
N#Cc1cnn(-c2c(Oc3ncc(F)cn3)cccc2C(F)F)c1 [Compound 240],"Plant response rating (0 to 100), Foxtail, Giant",[1]; [13],0
same,"Foxtail, Giant plant response rating",[1]; [14],35
same,"Plant response rating, Foxtail, Giant",[1]; [19],40
same,"Plant response rating, Foxtail, Giant",[1]; [20],20
same,"Plant response rating (0 to 100), Ragweed",[2]; [13],35
same,Ragweed plant response rating,[2]; [15],40
same,"Plant response rating, Ragweed",[2]; [19],75
same,"Plant response rating, Ragweed",[2]; [20],55
same,"Plant response rating, Pigweed",[3]; [21],100
same,"Plant response rating, Pigweed",[3]; [22],100
same,"Plant response rating (0 to 100), Chickweed",[4]; [13],5
same,Chickweed plant response rating,[4]; [14],5
same,"Plant response rating, Chickweed",[4]; [19],55
same,"Plant response rating, Chickweed",[4]; [20],55
same,"Plant response rating (0 to 100), Soybean",[5]; [13],30
same,Soybean plant response rating,[5]; [15],40
same,"Plant response rating, Soybean",[5]; [19],75
same,"Plant response rating, Soybean",[5]; [20],60
same,Pigweed plant response rating (0 to 100 scale),[6]; 125 g ai/ha,100
same,Pigweed plant response rating,[6]; [22],100
same,"Plant response rating (0 to 100), Oat, Wild",[7]; [13],0
same,"Oat, Wild plant response rating",[7]; [15],0
same,"Plant response rating, Oat, Wild",[7]; [19],0
same,"Plant response rating, Oat, Wild",[7]; [20],0
same,"Plant response rating, Foxtail, Giant",[8]; [21],90
same,"Plant response rating, Foxtail, Giant",[8]; [22],100
same,"Plant response rating (0 to 100), Wheat",[9]; [13],0
same,Wheat plant response rating,[9]; [15],0
same,"Plant response rating, Wheat",[9]; [19],5
same,"Plant response rating, Wheat",[9]; [20],5
same,"Foxtail, Giant plant response rating (0 to 100 scale)",[10]; 125 g ai/ha,100
same,"Foxtail, Giant plant response rating",[10]; [22],100
same,"Plant response rating (0 to 100), Velvetleaf",[11]; [13],10
same,Velvetleaf plant response rating,[11]; [15],25
same,"Plant response rating, Velvetleaf",[11]; [19],80
same,"Plant response rating, Velvetleaf",[11]; [20],45
